Source: patent US8440893B2, “Therapeutic agent for rheumatoid arthritis” (St. Marianna University School of Medicine, priority 2006, dated 2013)

Tests used:
macrophages = assay: Inflammatory cytokine production (ELISA), macrophages; assay type: cell-based, human; settings: for Concentration of cytokines produced by macrophage, IL-1β: medium only 8.1; for Concentration of cytokines produced by macrophage, TNF-α: medium only 122
Protocol: After obtaining informed consent, 50 mL of blood was collected from healthy individuals, and 1% heparin-added blood was acquired. Centrifuge tubes in which this blood was layered on top of a lymphocyte separation liquid were centrifuged at 1500 rpm for 30 minutes to isolate lymphocytes and macrophages individually. The cells were cultured using an RPMI medium supplemented with inactivated fetal bovine serum (FBS, manufactured by TRACE) at 10% of the medium volume, and also with 2 mM L-glutamine, 25 mM HEPES, and 100 units/mL of penicillin and streptomycin, in a CO2 incubator set at 5% CO2+95% air (normoxic conditions) at 37° C. under saturated humidity.
Effects of C60 on the production of inflammatory cytokines in each type of cell were analyzed using the enzyme-linked immunosorbent assay method (ELISA).
Each type of cell that was isolated and cultured to subconfluency by the above method was seeded into a 24-well culture plate at 1×10^5 cells/well. After culturing for 12 hours, the cells were washed with PBS, the medium was exchanged to fresh DMEM containing 10% FBS, and tumor necrosis factor TNF-α was added. The concentration of C60 treatment was 0.1, 1.0, or 10.0 μM, and the concentration of TNF-α treatment was 10.0 ng/mL. Each type of cell was cultured with C60 for 24 hours in the presence or absence of TNF-α, and then the culture solution was collected.
The concentrations of inflammatory cytokines TNF-α and interleukin (IL)-1β in the culture supernatant were determined using a ELISA kit, which is a standard technique currently known in the art. The ELISA was performed by the following standard method: the diluted culture supernatant sample was added into a sensitized plate at 100 μl per well, and the plate was left still for one hour at room temperature (primary reaction). After the primary reaction, the wells were sufficiently washed with PBS using a wash bottle four times or more. Horseradish peroxidase (HRP)-labeled goat anti-rabbit IgG (H+L) antibodies that have been diluted 3,000-folds with 0.1% Tween20-PBS were dispensed into the respective wells at 100 μl each, and the plate was left still for one hour at room temperature (secondary reaction). After the secondary reaction, the wells were washed with PBS in the same manner, and then 0.8 mM TMB (Tetramethylbenzidine) solution was added thereto at 100 μl per well, to effect color development at 30° C. for five to 20 minutes (color reaction). 100 μl of 1.5 N H3PO4 was added to each well to stop the color reaction, and the absorbance at 450 nm was measured using a microtiter plate reader. According to the instructions provided by the manufacturer, the measured concentrations were calibrated using a lyophilized control reagent.
(§1) SOD (final concentration: 10 or 100 μM) or vitamin C (final concentration: 10 or 100 μM) was added to DMEM medium. The level of inflammatory cytokines produced by macrophages and the osteoclast differentiation ability were measured by the methods of Examples 1-3 and 2-2 described above, respectively, and compared to the results obtained with C60 (10 μM) (Table 1).

[1] = test system: osteoclast precursor cells; assay: Osteoclast differentiation (TRAP staining of TRAP-positive multinucleated giant cells); assay type: cell-based; settings: medium only 78
Protocol: An osteoclast precursor cell culture kit (Cell Garage Co. Ltd.) was used to observe the effect of C60 on the differentiation of osteoclast precursor cells to mature osteoclasts.
Using the above-mentioned osteoclast precursor cell culture kit, osteoclast precursor cells were cultured on a chamber slide in the presence of osteoclast differentiation-inducing factors. C60 was added to the medium at a final concentration of 0.1, 1.0, or 10.0 μM, and the cells were cultured for seven days. The medium, including various additional factors, was changed to a fresh one every three days. On the seventh day, TRAP-positive multinucleated giant cells, which serve as an index of osteoclast differentiation, were observed by TRAP staining (Cell Garage AK04 Lot: FEM).
The TRAP staining method was carried out as follows. First, after confirming the formation of osteoclasts, the culture solution was removed, and the cells were washed with PBS at 100 μL/well. Next, a fixative solution (kit) was added at 50 μL/well and reacted for five minutes at room temperature. Then, the fixative solution was removed, and the cells were subjected to three washes using 250 μL/well of deionized distilled water (DDW). One vial of chromogenic substrate was dissolved by adding 5 mL of buffer to prepare a color developing solution. The above color developing solution was added at 50 μL/well and then incubated at 37° C. for 20 minutes. After confirming the color development, the color developing solution was removed, and the reaction was stopped using 250 μL/well of DDW. After washing with DDW three times in total, the wells were removed, and the slide was mounted with a water-soluble mounting medium (NUNK 178599 16-well chamber slides were used).
as §1

[2] = Antioxidative ability (kit utilizing the redox reaction of copper); assay type: biochemical
Protocol: Various concentrations of C60, SOD, and vitamin C solutions were prepared (solvent: DEME medium, SOD (10, and 100 μM), C60 (1, 10, and 100 μM), vitamin C (100 μM)), and the antioxidative ability of each was determined using a kit for measuring antioxidative ability (OXIS Health Product, Oregon, USA) which utilizes the redox reaction of copper.

Compound: O=C1O[C@H]([C@@H](O)CO)C(O)=C1O [Vitamin C, vitamin C]
- Concentration of cytokines produced by macrophage, IL-1β (macrophages; added antioxidant 10 μM): 6.9 ng/ml/1 × 10^5 cells
- Concentration of cytokines produced by macrophage, TNF-α (macrophages; added antioxidant 10 μM): 116 ng/ml/1 × 10^5 cells
- Concentration of cytokines produced by macrophage, IL-1β (macrophages; added antioxidant 100 μM): 7.5 ng/ml/1 × 10^5 cells
- Concentration of cytokines produced by macrophage, TNF-α (macrophages; added antioxidant 100 μM): 115 ng/ml/1 × 10^5 cells
- Osteoclast differentiation ([1]; added antioxidant 10 μM): 94 TRAP-positive multinucleated giant cells/well
- Osteoclast differentiation ([1]; added antioxidant 100 μM): 82 TRAP-positive multinucleated giant cells/well

Compound: Superoxide dismutase [SOD]
- Concentration of cytokines produced by macrophage, IL-1β (macrophages; added antioxidant 10 μM): 9.0 ng/ml/1 × 10^5 cells
- Concentration of cytokines produced by macrophage, TNF-α (macrophages; added antioxidant 10 μM): 130 ng/ml/1 × 10^5 cells
- Concentration of cytokines produced by macrophage, IL-1β (macrophages; added antioxidant 100 μM): 7.8 ng/ml/1 × 10^5 cells
- Concentration of cytokines produced by macrophage, TNF-α (macrophages; added antioxidant 100 μM): 106 ng/ml/1 × 10^5 cells
- Osteoclast differentiation ([1]; added antioxidant 10 μM): 82 TRAP-positive multinucleated giant cells/well
- Osteoclast differentiation ([1]; added antioxidant 100 μM): 75 TRAP-positive multinucleated giant cells/well
- ratio to the antioxidative ability of vitamin C (100 μM) ([2]; substance at 10 μM): approximately two-fold
- ratio to the antioxidative ability of vitamin C (100 μM) ([2]; substance at 100 μM): approximately 8 fold
